Read-outs that look alike come from different tables or passages of the source.
Columns and labels:
[1] = biological target: T1, human thyroid hormone receptors TRα1 (Homo sapiens, UniProt P10827); experiment: Receptor binding to TRα1 (gel filtration and scintillation proximity assay, labeled T3)
T1 construct: made in house; host or cells: Sf9 insect cells (baculovirus)
T1 sequence (P10827 1-410 isoform P10827-2): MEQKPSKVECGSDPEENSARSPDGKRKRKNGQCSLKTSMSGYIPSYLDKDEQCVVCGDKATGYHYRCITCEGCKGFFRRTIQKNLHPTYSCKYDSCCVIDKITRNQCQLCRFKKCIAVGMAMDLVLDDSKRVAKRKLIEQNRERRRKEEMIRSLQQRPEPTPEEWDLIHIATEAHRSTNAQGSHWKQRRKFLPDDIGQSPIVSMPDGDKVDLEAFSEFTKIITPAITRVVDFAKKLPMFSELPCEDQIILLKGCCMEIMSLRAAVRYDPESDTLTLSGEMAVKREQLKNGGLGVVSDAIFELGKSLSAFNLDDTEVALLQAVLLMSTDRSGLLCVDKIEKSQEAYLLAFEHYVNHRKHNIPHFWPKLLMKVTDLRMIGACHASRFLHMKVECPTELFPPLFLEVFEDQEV
T1 sequence (P19793 1-462 partner): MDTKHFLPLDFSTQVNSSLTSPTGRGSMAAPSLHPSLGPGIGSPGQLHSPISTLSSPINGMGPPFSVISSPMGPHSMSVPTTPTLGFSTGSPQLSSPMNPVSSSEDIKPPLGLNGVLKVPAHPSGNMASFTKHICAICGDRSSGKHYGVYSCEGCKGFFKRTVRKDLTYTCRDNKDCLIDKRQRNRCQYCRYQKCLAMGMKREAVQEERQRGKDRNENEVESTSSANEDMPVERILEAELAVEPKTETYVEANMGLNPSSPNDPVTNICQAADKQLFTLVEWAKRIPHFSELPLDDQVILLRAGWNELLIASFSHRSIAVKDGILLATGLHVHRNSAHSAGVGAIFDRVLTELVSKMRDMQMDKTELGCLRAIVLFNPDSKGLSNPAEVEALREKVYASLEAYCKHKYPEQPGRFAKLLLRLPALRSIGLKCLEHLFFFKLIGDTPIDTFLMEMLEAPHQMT
Experimental: (§1) Methods: Baculoviruses expressing TRα1, TRβ1 and RXRα were generated using cDNA and other reagents from Invitrogen (Carlsbad, Calif.). To produce TR/RXR heterodimer proteins, the sf9 insect cells were first grown to a density of 1-5×10^5 cells/mL. […] and RXRα baculovirus stocks were added to the cell culture with a ratio of 1 to 1 (multiplicity of infection=10). The cells were harvested three days after the infection.
(§2) Binding of compounds to either the TRα1 or TRβ1 were also performed by means of scintillation proximity assays (SPA). The SPA assay, a common method used for the quantitation of receptor-ligand equilibria, makes use of special beads coated with a scintillant and a capture molecule, copper, which binds to the histidine-tagged α or β receptor.

[2] = biological target: T2, human thyroid hormone receptors TRβ1 (Homo sapiens, UniProt P10828); experiment: Receptor binding to TRβ1 (gel filtration and scintillation proximity assay, labeled T3)
T2 construct: made in house; host or cells: Sf9 insect cells (baculovirus)
T2 sequence (P10828 1-461): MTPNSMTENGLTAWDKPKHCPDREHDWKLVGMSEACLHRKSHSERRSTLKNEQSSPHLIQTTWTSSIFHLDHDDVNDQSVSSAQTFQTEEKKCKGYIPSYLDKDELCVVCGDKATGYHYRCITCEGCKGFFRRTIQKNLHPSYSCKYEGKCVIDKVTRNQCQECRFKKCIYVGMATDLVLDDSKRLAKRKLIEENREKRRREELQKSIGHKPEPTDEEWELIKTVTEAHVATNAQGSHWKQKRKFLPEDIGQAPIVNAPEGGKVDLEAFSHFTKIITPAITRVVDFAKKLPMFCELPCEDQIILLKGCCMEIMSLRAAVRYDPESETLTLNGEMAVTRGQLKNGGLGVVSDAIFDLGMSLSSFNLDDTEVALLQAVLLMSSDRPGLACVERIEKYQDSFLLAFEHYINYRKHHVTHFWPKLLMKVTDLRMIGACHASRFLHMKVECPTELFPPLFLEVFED
T2 sequence (P19793 1-462 partner): T1 sequence (P19793 1-462 partner)
Experimental: as §1, §2

| Compound | Ki ([1]; SPA data, read-out: Ki TRα) | Ki ([2]; SPA data, read-out: Ki TRβ) | other results |
| --- | --- | --- | --- |
| Cc1cc(SCP(=O)(O)O)cc(C)c1Oc1ccc(O)c(C(C)C)c1 [Compound 54, [3,5-Dimethyl-4-(4′-hydroxy-3′-iso-propylphenoxy)benzenesulfanyl]methylphosphonic acid] | – | – | Ki ([1]; read-out: Ki TRα): 143 nM; Ki ([2]; read-out: Ki TRβ): 42 nM |
| Cc1cc(OCP(=O)(O)O)cc(C)c1Nc1ccc(O)c(C(C)C)c1 [Compound 20, [3,5-dimethyl-4-N-(4′-hydroxy-3-iso-propylphenylamino)phenoxy]methylphosphonic acid] | > 2000 nM | > 2000 nM | – |
| CC(C)c1cc(Oc2c(Cl)cc(C(=O)CP(=O)(O)O)cc2Cl)ccc1O [Compound 21, 2-[3,5-dichloro-4-(4′-hydroxy-3′-iso-propylphenoxy)phenyl]-2-oxoethylphosphonic acid] | > 1400 nM | > 180 nM | – |
| Cc1cc(C(=O)NCP(=O)(O)O)cc(C)c1Oc1ccc(O)c(C(C)C)c1 [Compound 23, N-[3,5-dimethyl-4-(4′-hydroxy-3′-iso-propylphenoxy)benzamido]methyl phosphonic acid] | > 2000 nM | > 2000 nM | – |
| CC(=O)Nc1ccc(Cc2c(C)cc(OCP(=O)(O)O)cc2C)cc1C(C)C [Compound 7-12, [4-(4′-acetylamino-3′-iso-propylbenzyl)-3,5-dimethylphenoxy]methylphosphonic acid] | > 2000 nM | 61 nM | – |
| Cc1cc(OCP(=O)(O)O)cc(C)c1Cc1ccc(O)c(C(=O)O)c1 [Compound 35, [3,5-dimethyl-4-(3′-carboxyl-4′-hydroxy-benzyl)phenoxy]methylphosphonic acid] | > 2000 nM | > 2000 nM | – |
| Cc1cc(OC[P@]2(=O)OCC[C@@H](c3cccc(Cl)c3)O2)cc(C)c1Cc1ccc(O)c(C(C)C)c1 [Compound 13-1-trans, (S)-2-[(3,5-dimethyl-4-(4′-hydroxy-3′-iso-propylbenzyl)phenoxy)methyl]-4-(3-chlorophenyl)-2-oxo-2λ^5-[1,3,2]-dioxaphosphonane] | 1740 nM | 1320 nM | – |
| NC(Cc1cc(I)c(Oc2ccc(O)c(I)c2)c(I)c1)P(=O)(O)O (stereo not drawn) [Compound 2, 1-amino-2-[3,5-diiodo-4-(4′-hydroxy-3′-iodophenoxy)phenyl]ethylphosphonic acid] | – | – | Ki ([1]; read-out: Ki TRα): 1420 nM; Ki ([2]; read-out: Ki TRβ): 271 nM |
| Cc1cc(OCP(=O)(O)O)cc(C)c1C(=O)c1ccc(O)c(C(C)C)c1 [Compound 25, [3,5-dimethyl-4-(3′-iso-propyl-4′-hydroxybenzoyl)phenoxy]methylphosphonic acid] | – | – | Ki [1]: > 2000 nM; Ki [2]: 363 nM |
| Cc1cc(OCP(=O)(O)O)cc(C)c1Cc1ccc(O)c(C(=O)NC(C)C)c1 [Compound 36, [3,5-dimethyl-4-(4′-hydroxy-3′-iso-propylcarbamoylbenzyl)-phenoxy]methylphosphonic acid] | > 2000 nM | 106 nM | – |
| Cc1cc(OC[P@]2(=O)OCC[C@@H](c3ccc(Cl)cc3)O2)cc(C)c1Cc1ccc(O)c(C(C)C)c1 [Compound 13-6-trans, 2-[(3,5-dimethyl-4-(4′-hydroxy-3′-iso-propylbenzyl)phenoxy)methyl]-4-(4-chlorophenyl)-2-oxo-2λ^5-[1,3,2]-dioxaphosphonane] | 1530 nM | 1570 nM | – |
| Cc1cc(CP(=O)(O)O)cc(C)c1Oc1ccc(O)c(C(C)C)c1 [Compound 19-3, [3,5-dimethyl-4-(4′-hydroxy-3′-iso-propylphenoxy)]benzylphosphonic acid] | – | 128 nM | Ki ([1]; read-out: Ki TRα): 1760 nM |
| COc1ccc(Cc2c(C)cc(OCP(=O)(O)O)cc2C)cc1C(C)C [Compound 7-4, [3,5-dimethyl-4-(3′-iso-propyl-4′-methoxybenzyl)phenoxy]methylphosphonic acid] | > 2000 nM | > 2000 nM | – |
| CCOC(=O)[C@@H](NP(=O)(COc1cc(C)c(Cc2ccc(O)c(C(C)C)c2)c(C)c1)N[C@H](C(=O)OCC)C(C)C)C(C)C [Compound 15-3, di-N-(1-ethoxycarbonyl-2-methyl-propylamino)[3,5-dimethyl-4-(3′-iso-propyl-4′-hydroxybenzyl)phenoxy]methylphosphonamide] | > 2000 nM | > 2000 nM | – |
| O=P(O)(O)Cc1cc(Cl)c(Oc2ccc(O)c(S(=O)(=O)N3CCCCC3)c2)c(Cl)c1 [Compound 9, 3,5-dichloro-4-[4′-hydroxy-3′-(N-piperidinylsulfonamido)phenoxy]benzylphosphonic acid] | 350 nM | 204 nM | – |
| Cc1cc(OC[P@]2(=O)OCC[C@@H](c3cccc(Br)c3)O2)cc(C)c1Cc1ccc(O)c(C(C)C)c1 [Compound 13-2-trans, 2-[(3,5-dimethyl-4-(4′-hydroxy-3′-iso-propylbenzyl)phenoxy)methyl]-4-(3-bromophenyl)-2-oxo-2λ^5-[1,3,2]-diox aphosphonane] | 1350 nM | 469 nM | – |
| CCc1cc(Cc2c(C)cc(CCP(=O)(O)O)cc2C)ccc1O [Compound 24-4, 2-[3,5-dimethyl-4-(3′-Ethyl-4′-hydroxy-benzyl)phenyl]ethylphosphonic acid] | > 2000 nM | 92 nM | – |
| CC(C)c1cc(Cc2c(Cl)cc(C(=O)CP(=O)(O)O)cc2Cl)ccc1F [Compound 41-3, 2-[3,5-dichloro-4-(4-fluoro-iso-propyl-benzyl)-phenyl]-2-oxo-ethylphosphonic acid] | > 2000 nM | 280 nM | – |
| Cc1cc(OCP(=O)(O)O)cc(C)c1Cc1ccc(O)c(C(=O)c2ccc(F)cc2)c1 [Compound 39, [3,5-dimethyl-4-[3′-(4-fluoro-benzoyl)-4′-hydroxy-benzyl]phenoxy]methylphosphonic acid] | > 2000 nM | 58 nM | – |
| CC(C)c1cc(Cc2c(Cl)cc(OCP(=O)(O)O)cc2Cl)ccc1O [Compound 7-5, [3,5-dichloro-4-(4′-hydroxy-3′-iso-propylbenzyl)phenoxy]methylphosphonic acid] | 67 nM | 9.5 nM | – |
| Cc1cc(OC[P@]2(=O)OCC[C@@H](c3cc(Cl)cc(Cl)c3)O2)cc(C)c1Cc1ccc(O)c(C(C)C)c1 [Compound 13-7-trans] | 1550 nM | 3800 nM | – |
| Cc1cc(OC[P@]2(=O)OCC[C@@H](c3ccncc3)O2)cc(C)c1Cc1ccc(O)c(C(C)C)c1 [Compound 13-5-trans, 2-[(3,5-dimethyl-4-(4′-hydroxy-3′-iso-propylbenzyl)phenoxy)methyl]-4-(pyrid-4-yl)-2-oxo-2λ^5-[1,3,2]-dioxaphosphonane] | 354 nM | 281 nM | – |
| Cc1cc(C(=O)CP(=O)(O)O)cc(C)c1Cc1ccc(O)c(Cc2ccccc2)c1 [Compound 41, [3,5-dimethyl-4-[3′-benzyl-4′-hydroxy-benzyl]benzoyl]methylphosphonic acid] | > 2000 nM | 181 nM | – |
| Cc1cc(OC[P@]2(=O)OCC[C@@H](c3cccc(F)c3)O2)cc(C)c1Cc1ccc(O)c(C(C)C)c1 [Compound 13-3-trans] | 2010 nM | 2460 nM | – |
| O=P(O)(O)CCc1cc(I)c(Oc2ccc(O)c(I)c2)c(I)c1 [Compound 3, 2-[3,5-diiodo-4-(4′-hydroxy-3′-iodophenoxy)phenyl]ethylphosphonic acid] | 46 nM | 5.42 nM | – |
| Cc1cc(OCP(=O)(O)O)cc(C)c1Sc1ccc(O)c(C(C)C)c1 [Compound 43, [3,5-dimethyl-4-S-[(4′-hydroxy-3′-iso-propylphenyl)sulfanyl]phenoxy]methylphosphonate] | 363 nM | 108 nM | – |
| Cc1cc(OCP(=O)(O)O)cc(C)c1Cc1ccc(O)c(S(=O)(=O)C(C)C)c1 [Compound 44, [3,5-dimethyl-4-[4′-hydroxy-3′-(iso-propylsulfonyl)benzyl]phenoxy]methylphosphonic acid] | 832 nM | 44 nM | – |

Reference: patent US20090028925A1, “Novel Phosphinic Acid-Containing Thyromimetics” (priority 2005, published 2009)
